Patent US20150374709A1, “TETRA-SUBSTITUTED NDGA DERIVATIVES VIA ETHER BONDS AND CARBAMATE BONDS AND THEIR SYNTHESIS AND PHARMACEUTICAL USE” (ERIMOS PHARMACEUTICALS LLC, priority 2006, published 2015)

Assays:
[1] = tested on: Renal Cancer cell lines; test: NCI DTP human tumor cell line screen, renal cancer panel; assay type: cell-based; settings: Renal Cancer (6 cell lines)
Source text: (§1) The United States National Cancer Institute (NCI) provides a developmental therapeutics program (DTP) (http://dtp.nci.nih.gov/branches/btb/ivelsp.html) to screen submitted substances in support of cancer drug discovery. The In Vitro Cell Line Screening Project (IVCLSP) is a dedicated service providing direct support to the DTP anticancer drug discovery program and is designed to screen up to 3,000 compounds per year for potential anticancer activity. The operation of this screen utilizes 60 different human tumor cell lines, representing leukemia, melanoma and cancers of the lung, colon, brain, ovary, breast, prostate, and kidney. The aim is to prioritize for farther evaluation, synthetic compounds or natural product samples showing selective growth inhibition or cell killing of particular tumor cell lines. This screen is unique in that the complexity of a 60 cell line dose response produced by a given compound results in a biological response pattern which can be utilized in pattern recognition algorithms (COMPARE program. See: http://dtp.nci.nih.gov/docs/compare/compare.html). Using these algorithms, it is possible to assign a putative mechanism of action to a test compound, or to determine that the response pattern is unique and not similar to that of any of the standard prototype compounds included in the NCI database. […]

[2] = Caco-2 monolayer bidirectional permeability; assay type: in vitro ADME, human; settings: human
Protocol: (§2) Permeability studies were conducted by an outside contractor on behalf of the assignee of the present invention and application to determine the permeability of Compound A through Caco-2 monolayers. An important factor of oral bioavailability is the ability of e compound to be absorbed in the small intestine. Measurement of drug apparent permeability (Papp) through cell monolayers is well correlated with human intestinal absorption, and several mammalian cell lines, including Caco-2, LLC-PK1 and MDCK, are appropriate for this measurement (Artursson, P. et al., Correlation between oral drug absorption in humans and apparent drug permeability coefficients in human intestinal epithelial (Caco-2) cells. Biochem Biophys Res Comm 175:880-885 (1991); Stewart. B. H., et al., Comparison of intestinal permeabilities in multiple in vitro and in situ models: relationship to absorption in humans. Pharm Res 12:693 (1995)). P-Glycoprotein (P-gp, encoded by MDR1) is a member of the ABC transporter super family and is expressed in the human intestine, liver and other tissues. Intestinal expression of P-gp may affect the oral bioavailability of drug molecules that are substrates for this transporter. Interaction with P-gp can be studied using direct assays of drug transport in polarized cell systems such as Caco-2 cell monolayers, and human P-gp cDNA-expressing LLC-PK1 and MDCK cell monolayers. Caco-2 cells (human adenocarcinoma colonic cell line Caco-2, ATCC Cat. No. […] The cells were cultured for 21-25 days with media replacement every 3-4 days. Monolayer integrity was evaluated by pre-experimental trans-epithelial electrical resistance (TEER) measurements and post-experimental lucifer yellow A to B flux determinations. […] Receiver solution was prepared by adding 1% DMSO to transport buffer. The test solution was of Compound A in DMSO in transport buffer at a final DMSO concentration of 1%. […] The donor and receiver solutions were added to the apical or basolateral chambers of the monolayers (depending on the direction of transport to be measured). The monolayers were incubated on an orbital shaker (50 rpm) at 37° C., with ambient humidity and CO2. After 90 minutes, samples from the donor and receiver chambers were removed for analysis. […] Duplicate monolayers were used for each incubation. Samples were analyzed by LC/MS/MS using peak area ratios to an internal standard. Test article concentrations were calculated based on the peak area ratios obtained for appropriate dilutions of the donor solution containing the test article at the nominal concentration in transport buffer. Samples were diluted as appropriate to ensure that the response was within the linear range of the mass spec detector. Comparator and control samples were analyzed by liquid scintillation counting. Lucifer yellow concentrations were determined using a fluorescence plate reader.

[3] = tested on: Caco-2 cell monolayers; test: Caco-2 monolayer bidirectional permeability; assay type: in vitro ADME, human; settings: human, Caco-2, 90 min, 1 μM, pH 7.4
Protocol: as §2

[4] = tested on: COS-7 cells; test: MTT cytotoxicity assay in COS-7 cells (run with SEAP); assay type: cell-based, green monkey; settings: Chlorocebus sabaeus, COS-7 test cells of the SEAP assay
Protocol: The MTT assay is a colorimetric method for determining the number of viable cells. Metabolically active cells turn the MIT reagent, (3-(4,5-dimethylthiazol-2-yl)-2,5-diphenyltetrazolium bromide, into purple-colored formazan crystals that are solubilized in dimethyl sulfoxide (DMSO). The MTT reagent is added to MTT (colorless) media. The media is added to the cells and they are incubated for 4 hours. DMSO is added to the cells and mixed. The colored solutions are then read at 540 nm and corrected at 630 nm. The IC50 is estimated by graphing the gathered data.
The cells are analyzed by the MTT assay to compare cytotoxicity to SEAP inhibition. The goal is for the drug to inhibit SEAP without being too toxic.
The MTT assay measures cellular-proliferation and is used to verify that the levels of SEAP activity are not solely due to cytotoxicity. These assays was used in screening for potential drug compound leads as antiviral agents, and particularly, anti-HIV candidates.

[5] = tested on: Ovarian Cancer cell lines; test: NCI DTP human tumor cell line screen, ovarian cancer panel; assay type: cell-based; settings: Ovarian Cancer (6 cell lines)
Source text: as §1

C[C@H](Cc1ccc(OCCCN2CCCCC2)c(OCCCN2CCCCC2)c1)[C@@H](C)Cc1ccc(OCCCN2CCCCC2)c(OCCCN2CCCCC2)c1 [Compound A, 1,4-bis{3,4-bis[3-(piperidin-1-yl)propoxy]phenyl}-2,3-dimethyl-(2R,3S)-butane]
Mean Growth Percent at 10 μM [1]: −95.54%
Papp A→B at 90 min, 1 μM ([2]; Caco-2, pH 7.4, BCS permeability class): 0.514 to 14.2 ×10⁻⁶ cm/s
Papp A→B at 90 min, 1 μM ([2]; Caco-2, pH 7.4, Papp A to B): 9.75 ×10⁻⁶ cm/s
Papp B→A at 90 min, 1 μM ([2]; Caco-2, pH 7.4, Papp B to A): 1.74 ×10⁻⁶ cm/s
efflux ratio at 90 min, 1 μM ([2]; Caco-2, pH 7.4, Polarization Ratio [B-A/A-B]): 0.1 to 0.2
Papp A to B [3]: 9.61 ×10⁻⁶ cm/s
Papp B to A [3]: 1.72 ×10⁻⁶ cm/s
Polarization Ratio [B-A/A-B] [3]: 0.18
IC50 [4]: 700 to 900 nM
Mean Growth Percent at 10 μM [5]: −85.89%
